Patent US10047036B2, “Method for the synthesis of hydroxy-triglycerides and uses thereof for the prevention and treatment of diseases” (UNIVERSITAT DE LES ILLES BALEARS, priority 2014, dated 2018)

What was measured:
[1] = test system: MRC5 (non-tumour) human fibroblasts; assay: growth inhibition of normal non-tumour cells, 72 h incubation; format: cell-based; details: 72 hours of incubation
Protocol: On the one hand, human cells of different types of cancer were used. The cells were incubated at 37° C. and 5% of CO2 in air, in culture medium RPMI1640 or DMEM with bovine foetal serum (10%) and other supplements and in the presence or absence of the triglycerides of the present invention at different concentrations during 72 hours. It was possible to observe that the hydroxy-triglycerides of the invention have a high efficacy against the growth of human tumour cells, but not against the growth of normal non-tumour cells (human fibroblasts, MRC5).

[2] = membrane transition temperatures by X-ray diffraction; format: physicochemical; details: POPE with 1 mol % of TGM
Text: As can be appreciated, the presence of TGM induce a very important reduction in the lateral surface tension which is evident from the reduction in the value of the lamellar-to-hexagonal (L-a-HII) transition temperature, which in turn indicates an increase in non-lamellar propensity: Table 12). This effect has an important repercussion on the functionality of the membrane, as this structure allows for the anchoring of certain membrane proteins necessary for cell signalling. For this reason, it can be said that the TGMs have a positive effect on cell signalling because they allow the propagation of cell signals which are lost in association with a wide variety of diseases. This effect shown on the structure of the membrane explains in part why certain oils, such as olive oil or fish oil, have important beneficial properties for the prevention of various diseases, such as cancer, cardiovascular/metabolic diseases and neurological/neurodegenerative diseases. FIG. 6 and Table 12 show clearly how all the TGMs have a similar effect, although with minor nuances in each case. The effect on the solid-liquid transition (Tm) and the lamellar to hexagonal transition (TH) was measured in membranes of palmitoyl-oleoyl phosphatidylethanolamine (POPE) by means of X-ray diffraction in the absence of (POPE Control) or presence of 1 mol % of each one of the indicated TGMs.

[3] = body weight of SHR rats; format: in vivo; details: 14 days, 600 mg/kg, 12 h, p.o., basal weight 342 grams
Text: (§1) Metabolic and cardiovascular pathologies are closely related. The overfeeding which characterises our society not only gives rise to problems of obesity and excess weight. It is also linked to the appearance of diabetes, dyslipidaemia, hypertension, strokes, arteriosclerosis, ictus, etc. All of these pathologies increase the risk of premature death and can even cause death. In this sense, certain natural oils show a certain efficacy against this type of pathologies, but their power is limited. In contrast, the molecules of the invention have an important effect against the development of this type of pathologies. To be able to study the effects of the compounds of the invention for the prevention and treatment of metabolic and cardiovascular pathologies, hypertensive rats were used (SHR strain, spontaneously hypertensive rats). These rats present obesity, high blood pressure, dyslipidaemia (hypercholesterolemia and hypertriglyceridemia), diabetes, metabolic syndrome and other related health problems.

[4] = test system: plasma glucose; assay: plasma glucose in spontaneously hypertensive rats; format: in vivo; details: SHR rats, 9 days, 400 mg/kg every 12 hours, p.o.; fasting 12 hours
Text: as §1, with “problems. At the same time, research was conducted into the efficacy of the hydroxy-triglycerides for controlling the high levels of glycaemia in SHR rats, and therefore, preventing or curing diabetes. Hypertensive rats (SHR) with an approximate weight of 300 grams were treated with TGM1 during 9 days (400 mg/kg, every 12 h, p.o.). Plasma glucose was measured before starting the treatment (basal) and 9 days later. In all cases, the plasma measurements were conducted in rats kept fasting during 12 hours. In this way, after 9 days of treatment, the levels of glucose in blood were reduced by up to more than 25% for the molecules of the invention (FIG. 5 and Table 4). [table]” for “problems.”

[5] = target: T1, Glycogen Branching Enzyme 1 (GBE1) variant Y329S (Homo sapiens, UniProt Q04446, Y329S); assay: activity of purified enzyme GBE1 Y329S in the presence of PC membranes; format: biochemical; details: PC membranes with TGM 20 mol %; non-mutated enzyme = 100% (0.76 nmol/min · ng protein)
T1 sequence (Q04446 1-702 Y329S): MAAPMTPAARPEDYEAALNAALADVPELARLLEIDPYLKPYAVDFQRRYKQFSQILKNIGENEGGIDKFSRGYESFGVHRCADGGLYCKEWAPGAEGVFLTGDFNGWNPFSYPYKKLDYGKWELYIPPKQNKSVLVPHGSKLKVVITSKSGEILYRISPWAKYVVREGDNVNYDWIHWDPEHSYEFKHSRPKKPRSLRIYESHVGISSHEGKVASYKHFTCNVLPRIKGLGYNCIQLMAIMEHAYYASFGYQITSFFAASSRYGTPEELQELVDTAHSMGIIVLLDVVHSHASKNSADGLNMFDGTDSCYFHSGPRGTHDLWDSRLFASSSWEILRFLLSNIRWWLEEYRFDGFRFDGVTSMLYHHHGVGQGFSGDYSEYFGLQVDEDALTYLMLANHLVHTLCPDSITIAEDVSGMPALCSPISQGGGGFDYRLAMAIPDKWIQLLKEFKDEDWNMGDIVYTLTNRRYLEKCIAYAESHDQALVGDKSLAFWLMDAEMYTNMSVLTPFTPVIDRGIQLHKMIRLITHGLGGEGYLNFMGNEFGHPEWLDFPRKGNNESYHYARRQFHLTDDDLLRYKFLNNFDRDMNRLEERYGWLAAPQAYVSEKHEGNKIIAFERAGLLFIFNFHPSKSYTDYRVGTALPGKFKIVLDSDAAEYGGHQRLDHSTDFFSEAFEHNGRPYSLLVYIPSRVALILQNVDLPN
Text: It has been possible to observe that the molecules of the present invention are capable of regulating the activity of the Glycogen Branching Enzyme 1 (GBE1) and its joining to membranes (Table 9). Alterations in this enzyme give rise to a neurodegenerative process known as APBD (Kakhlon et al., 2013). It has been described that a modification of tyrosine in position 329 of this enzyme (Y329S) causes a reduction in the activity of GBE1. This gives rise to a lower branching of glycogen, which precipitates forming […] which interfere with cell activity (Kakhlon et al., 2013). This gives rise to problems in the function of certain organs, to motor problems and, in some cases, to cognitive decline. We have been able to verify that the hydroxy-triglycerides of the present invention are capable of regulating the joining of native GBE1 (wild type, wt) and with the variant Y329S to membranes and to increase the activity of the form Y329S, which is very low in normal conditions (Table 9). For this reason, the molecules of the present invention are effective for the prevention and treatment of the polyglucosan bodies disease, APBD.

CCCCCC(O)C(=O)OCC(COC(=O)C(O)CCCCC)OC(=O)C(O)CCCCC (stereo not shown) [TGM0, 1,2,3-tri(2′-hydroxyheptanoyl)glycerol]
IC50 ([1]; Homo sapiens, MRC5): > 500 µM | TH, lamellar to hexagonal transition temperature [2]: 68.3 ± 0.6 °C | Tm, solid-liquid transition temperature [2]: 22.7 ± 0.2 °C | ΔWeight, change in weight [3]: -4 ± 2 g | Δ G, change in glucose levels in plasma [4]: -4 mg/dL | Activity Y329S [5]: 20 ± 2%

CCCCCCCCC=CCCCCCCC(O)C(=O)OCC(COC(=O)C(O)CCCCCCC=CCCCCCCCC)OC(=O)C(O)CCCCCCC=CCCCCCCCC (stereo not shown) [TGM1, 1,2,3-tri(2′-hydroxy-octadec-9′-enoyl)glycerol]
IC50 [1]: > 500 µM | TH, lamellar to hexagonal transition temperature [2]: 66.0 ± 0.9 °C | Tm, solid-liquid transition temperature [2]: 23.8 ± 0.3 °C | ΔWeight, change in weight [3]: -22 ± 5 g | Δ G, change in glucose levels in plasma [4]: -20 mg/dL | Activity Y329S [5]: 7 ± 1%

CCCCCC=CCC=CCCCCCCC(O)C(=O)OCC(COC(=O)C(O)CCCCCCC=CCC=CCCCCC)OC(=O)C(O)CCCCCCC=CCC=CCCCCC (stereo not shown) [TGM2, 1,2,3-tri(2′-hydroxy-octadec-9′,12′-dienoyl)glycerol]
IC50 [1]: > 500 µM | TH, lamellar to hexagonal transition temperature [2]: 62.0 ± 1.1 °C | Tm, solid-liquid transition temperature [2]: 23.6 ± 0.3 °C | ΔWeight, change in weight [3]: -32 ± 6 g | Δ G, change in glucose levels in plasma [4]: -7 mg/dL | Activity Y329S [5]: 11 ± 2%

CCC=CCC=CCC=CCCCCCCC(O)C(=O)OCC(COC(=O)C(O)CCCCCCC=CCC=CCC=CCC)OC(=O)C(O)CCCCCCC=CCC=CCC=CCC (stereo not shown) [TGM3A, 1,2,3-tri(2′-hydroxy-octadec-9′,12′,15′-trienoyl)glycerol]
IC50 [1]: > 500 µM | TH, lamellar to hexagonal transition temperature [2]: 63.0 ± 1.1 °C | Tm, solid-liquid transition temperature [2]: 23.4 ± 0.2 °C | ΔWeight, change in weight [3]: -14 ± 4 g | Δ G, change in glucose levels in plasma [4]: -14 mg/dL | Activity Y329S [5]: 10 ± 2%

CCCCCC=CCC=CCC=CCCCC(O)C(=O)OCC(COC(=O)C(O)CCCC=CCC=CCC=CCCCCC)OC(=O)C(O)CCCC=CCC=CCC=CCCCCC (stereo not shown) [TGM3G, 1,2,3-tri(2′-hydroxy-octadec-6′,9′,12′-trienoyl)glycerol]
IC50 [1]: > 500 µM | TH, lamellar to hexagonal transition temperature [2]: 63.6 ± 1.1 °C | Tm, solid-liquid transition temperature [2]: 23.3 ± 0.3 °C | ΔWeight, change in weight [3]: -12 ± 3 g | Δ G, change in glucose levels in plasma [4]: -9 mg/dL | Activity Y329S [5]: 9 ± 4%

CCCCCC=CCC=CCC=CCC=CCCC(O)C(=O)OCC(COC(=O)C(O)CCC=CCC=CCC=CCC=CCCCCC)OC(=O)C(O)CCC=CCC=CCC=CCC=CCCCCC (stereo not shown) [TGM4, 1,2,3-tri(2′-hydroxy-eicosa-5′,8′,11′,14′-tetraenoyl)glycerol]
IC50 [1]: > 500 µM | TH, lamellar to hexagonal transition temperature [2]: 64.6 ± 0.8 °C | Tm, solid-liquid transition temperature [2]: 23.2 ± 0.2 °C | ΔWeight, change in weight [3]: -25 ± 5 g | Δ G, change in glucose levels in plasma [4]: -5 mg/dL | Activity Y329S [5]: 4 ± 1%

CCC=CCC=CCC=CCC=CCC=CCCC(O)C(=O)OCC(COC(=O)C(O)CCC=CCC=CCC=CCC=CCC=CCC)OC(=O)C(O)CCC=CCC=CCC=CCC=CCC=CCC (stereo not shown) [TGM5, 1,2,3-tri(2′-hydroxy-eicosa-5′,8′,11′,14′,17′-pentaenoyl)glycerol]
IC50 [1]: > 500 µM | ΔWeight, change in weight [3]: -9 ± 3 g | Δ G, change in glucose levels in plasma [4]: -13 mg/dL | Activity Y329S [5]: 16 ± 3%

CCC=CCC=CCC=CCC=CCC=CCC=CCC(O)C(=O)OCC(COC(=O)C(O)CC=CCC=CCC=CCC=CCC=CCC=CCC)OC(=O)C(O)CC=CCC=CCC=CCC=CCC=CCC=CCC (stereo not shown) [TGM6, 1,2,3-tri(2′-hydroxy-docosa-4′,7′,10′,13′,16′,19′-hexanoyl)glycerol]
IC50 [1]: > 500 µM | TH, lamellar to hexagonal transition temperature [2]: 64.9 ± 0.9 °C | Tm, solid-liquid transition temperature [2]: 23.3 ± 0.2 °C | ΔWeight, change in weight [3]: -19 ± 4 g | Δ G, change in glucose levels in plasma [4]: -16 mg/dL | Activity Y329S [5]: 5 ± 1%
